Results taken from patent publication US20060229254A1, “Compounds having prolyl oligopeptidase inhibitory activity” (priority 2003, published 2006).

The molecules below were run against T1, pig brain prolyl oligopeptidase (Sus scrofa, UniProt P23687) (assay: Inhibition of pig brain prolyl oligopeptidase (Suc-Gly-Pro-AMC fluorometric microplate assay)). Details: pig brain supernatant, Suc-Gly-Pro-AMC substrate, 30 min preincubation, 30° C., pH 7.0.
T1 construct: The brains were homogenized with a glass-teflon homogenisator in 3 volumes (w/v) of ice-cold 0.1 M sodium-potassium phosphate buffer; from tissue; host or cells: pig brain (whole brain excluding cerebellum and most of the brain stem), 10000 g supernatant of the homogenate
Type: biochemical
Method: The inhibitory effect of the novel compounds on POP activity of pig brain was determined with a method based on that described by Toide et al. (Toide, K, Iwamoto, Y., Fujiwara. T., Abe, H., J. Pharmacol. Exp. Ther., 1995, 274, 1370-1378) for the rat enzyme.
The whole pig brains, excluding cerebellum and most of the brain stem, of three pigs were placed in liquid nitrogen within 30 min from killing and stored at −80° C. until homogenized. The brains were homogenized with a glass-teflon homogenisator in 3 volumes (w/v) of ice-cold 0.1 M sodium-potassium phosphate buffer (pH 7.0) and the homogenates were centrifuged for 20 min at 4° C. at 10000 g. The supernatants were collected, pooled and stored in small aliquots at −80° C. until used. The supernatant was thawn in ice just before activity assay and diluted in a ratio 1:2 with homogenisation buffer (=enzyme preparation).
In the microplate assay procedure, 10 μl of enzyme preparation was preincubated with 460 μl of 0.1 M sodium-potassium phosphate buffer (pH 7.0) and 5 μl of a solution of novel compound dissolved in DMSO and diluted with 0.1 M sodium-potassium phosphate buffer at 30° C. for 30 min. The controls contained 10 μl enzyme preparation and 465 μl of 0.1 M sodium-potassium phosphate buffer (pH 7.0). The reaction was initiated by adding 25 μl of 4 mM Suc-Gly-Pro-AMC (AMC: 7-amido-4-methylcoumarin) dissolved in 0.1 M sodium-potassium phosphate buffer (pH 7.0), and the mixture was incubated at 30° C. for 60 min. The reaction was terminated by adding 500 μl of 1 M sodium acetate buffer (pH 4.2).
Formation of 7-amido-4-methylcoumarin was determined fluorometrically with microplate fluorescence reader (excitation at 360 nm and emission at 460 nm). The final concentration of novel compounds in the assay mixture varied from 10^−12 M to 10^−4 M.
The prolyl oligopeptidase activity was calculated with the following formula in the presence of various concentrations of novel compounds. To reveal the inhibitory potency of the novel compound, activities (% of control) were plotted against the log concentration of the compound, and the IC50 value was determined by non-linear regression utilizing GraphPad Prism software. Activity (% of control)=a/b×100, where
a=fluorescence intensity in the presence of a novel compound
b=fluorescence intensity without a novel compound (control)

T1 sequence (P23687 whole entry): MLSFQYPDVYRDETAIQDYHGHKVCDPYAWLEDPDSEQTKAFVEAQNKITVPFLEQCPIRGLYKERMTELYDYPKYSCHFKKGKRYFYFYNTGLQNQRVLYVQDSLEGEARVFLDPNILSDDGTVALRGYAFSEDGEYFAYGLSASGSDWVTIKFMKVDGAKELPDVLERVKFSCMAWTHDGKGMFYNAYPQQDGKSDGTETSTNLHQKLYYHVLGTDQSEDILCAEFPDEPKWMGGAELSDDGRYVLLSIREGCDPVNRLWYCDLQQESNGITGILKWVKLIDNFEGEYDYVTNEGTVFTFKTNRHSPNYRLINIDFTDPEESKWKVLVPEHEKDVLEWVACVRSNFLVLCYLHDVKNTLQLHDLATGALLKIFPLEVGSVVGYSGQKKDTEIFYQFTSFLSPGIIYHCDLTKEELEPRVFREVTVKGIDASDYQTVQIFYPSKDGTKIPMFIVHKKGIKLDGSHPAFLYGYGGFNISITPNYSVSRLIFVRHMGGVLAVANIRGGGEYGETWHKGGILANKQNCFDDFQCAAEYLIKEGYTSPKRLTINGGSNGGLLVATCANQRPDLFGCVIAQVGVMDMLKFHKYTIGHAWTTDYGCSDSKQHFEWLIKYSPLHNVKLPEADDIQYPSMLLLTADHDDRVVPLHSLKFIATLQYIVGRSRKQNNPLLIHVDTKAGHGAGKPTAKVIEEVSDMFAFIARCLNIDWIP

Molecule	IC50
O=C(NCc1ccccc1)C1=CCCC1C(=O)N1CCCC1 (stereo not shown) [Example 3, 2-Benzylcarbamoyl-cyclopent-2-ene-carboxylic acid pyrrolidine amide]	9000 pM
O=C(NCc1ccccc1)C1=CCCC1C(=O)N1CCC[C@H]1C(=O)CO (single isomer, unassigned) [Example 2]	320 pM
4-Phenylbutanoyl-5(R)-methyl-L-prolyl-pyrrolidine [Example 7]	710 pM
N#C[C@@H]1CCCN1C(=O)C1CCC=C1C(=O)CCCc1ccccc1 (stereo partly drawn) [Example 5, 2-(4-Phenylbutanoyl)-cyclopent-2-ene-carboxylic acid 2(S)-cyanopyrrolidine amide]	210 pM
C[C@@H]1CC[C@@H](C(=O)N2CCC[C@H]2C(=O)CO)N1C(=O)CCCc1ccccc1 [Example 8, 4-Phenylbutanoyl-5(R)-methyl-L-prolyl-2(S)-(hydroxyacetyl)-pyrrolidine]	150 pM
N#C[C@@H]1CCCN1C(=O)C1CCC=C1C(=O)NCc1ccccc1 (stereo partly drawn) [Example 1, 2-(Benzylcarbamoyl)-cyclopent-2-ene-carboxylic acid 2(S)-cyanopyrrolidine amide]	380 pM
O=C(Cc1ccccc1)C1=CCCC1C(=O)N1CCCC1 (stereo not shown) [Example 4, 2-Benzylcarbonyl-cyclopent-2-ene-carboxylic acid pyrrolidine amide]	7700 pM

Continued, values first:

IC50	Molecule
1600 pM	CC(C)(C)[C@H]1CC[C@@H](C(=O)N2CCCC2)N1C(=O)CCCc1ccccc1 [Example 11, 4-Phenylbutanoyl-5(R)-tert-butyl-L-prolyl-pyrrolidine]
240 pM	CC(C)(C)[C@H]1CC[C@@H](C(=O)N2CCC[C@H]2C(=O)CO)N1C(=O)CCCc1ccccc1 [Example 12, 4-Phenylbutanoyl-5(R)-tert-butyl-L-prolyl-2(S)-(hydroxyacetyl)-pyrrolidine]
2200 pM	CC(C)(C)OC(=O)N1[C@H](C(=O)N2CCCC2)CC[C@@H]1C(C)(C)C [Example 9, Boc-5(R)-tert-butyl-L-prolyl-pyrrolidine]
9200 pM	CC(C)(C)OC(=O)N1[C@H](C(C)(C)C)CC[C@H]1C(=O)N1CCCC1 [Example 16, Boc-5(S)-tert-butyl-L-prolyl-pyrrolidine]
1400 pM	4-Phenylbutanoyl-5(S)-methyl-L-prolyl-pyrrolidine [Example 14]
170 pM	C[C@H]1CC[C@@H](C(=O)N2CCC[C@H]2C(=O)CO)N1C(=O)CCCc1ccccc1 [Example 15, 4-Phenylbutanoyl-5(S)-methyl-L-prolyl-2(S)-(hydroxyacetyl)-pyrrolidine]
